Results: paper PMC4460250, “Systems Pharmacology Dissecting Holistic Medicine for Treatment of Complex Diseases: An Example Using Cardiocerebrovascular Diseases Treated by TCM” (Evidence-based Complementary and Alternative Medicine : eCAM, 2015)

Legend:
[1] = in vivo; cited from earlier work
[2] = in vivo

Structure (SMILES) | HIA(Human Intestinal Absorption) [1] | Class(High: HIA value ≥0.7; Low: HIA value < 0.7) [2]
COc1ccc([C@H](CN(C)C)C2(O)CCCCC2)cc1 [Venlafaxine(R)] | 0.95 | High (key: High: HIA value ≥0.7; Low: HIA value < 0.7)
CC(C)=CCN1CCC2(C)c3cc(O)ccc3CC1C2C (stereo not drawn) [Pentazocine] | 0.95 | High (key: High: HIA value ≥0.7; Low: HIA value < 0.7)
CN1[C@H](CSCC(F)(F)F)Nc2cc(Cl)c(S(N)(=O)=O)cc2S1(=O)=O [Polythiazide(R)] | 1 | High (key: High: HIA value ≥0.7; Low: HIA value < 0.7)
C=CCOc1ccccc1OC[C@@H](O)CNC(C)C [Oxprenolol(S)] | 0.95 | High (key: High: HIA value ≥0.7; Low: HIA value < 0.7)
CCCC[C@@H]1C(=O)N(c2ccccc2)N(c2ccc(O)cc2)C1=O [Oxyphenbutazone(R)] | 1 | High (key: High: HIA value ≥0.7; Low: HIA value < 0.7)
CCC(C)n1ncn(-c2ccc(N3CCN(c4ccc(OCC5COC(Cn6cncn6)(c6ccc(Cl)cc6Cl)O5)cc4)CC3)cc2)c1=O [Itraconazole(R)] | 0.8 | High (key: High: HIA value ≥0.7; Low: HIA value < 0.7)
COC(=O)C1=C(C)NC(C)=C(C(=O)OC(C)C)[C@H]1c1cccc2nonc12 [Isradipine(S)] | 0.92 | High (key: High: HIA value ≥0.7; Low: HIA value < 0.7)
C=CCc1ccccc1OC[C@@H](O)CNC(C)C [Alprenolol(S)] | 0.93 | High (key: High: HIA value ≥0.7; Low: HIA value < 0.7)
COc1ccccc1OC[C@H](O)COC(N)=O [Methocarbamol(S)] | 1 | High (key: High: HIA value ≥0.7; Low: HIA value < 0.7)
Cc1cc(C)nc(NS(=O)(=O)c2ccc(N)cc2)n1 [Sulfamethazine] | 0.95 | High (key: High: HIA value ≥0.7; Low: HIA value < 0.7)
OCCN1CCN(CC/C=C2/c3ccccc3Sc3ccc(C(F)(F)F)cc32)CC1 [Flupentixol] | 1 | High (key: High: HIA value ≥0.7; Low: HIA value < 0.7)
C[N+]1(C)CCCC1COC(=O)C(O)(c1ccccc1)c1ccccc1 (stereo not drawn) [Poldine] | 0.05 | Low (key: High: HIA value ≥0.7; Low: HIA value < 0.7)
CN(C)C(=O)O[C@@H]1N=C(c2ccccc2)c2cc(Cl)ccc2N(C)C1=O [Camazepam(S)] | 1 | High (key: High: HIA value ≥0.7; Low: HIA value < 0.7)
CN(C)C(=O)Oc1cccc([N+](C)(C)C)c1 [Neostigmine] | 0.02 | Low (key: High: HIA value ≥0.7; Low: HIA value < 0.7)
CC(C)(C)c1ccc([C@H](O)CCCN2CCC(C(O)(c3ccccc3)c3ccccc3)CC2)cc1 [Terfenadine(R)] | 1 | High (key: High: HIA value ≥0.7; Low: HIA value < 0.7)
CCCC(CCC)CCC[C@@H]1COCCN1CCO [Delmopinol(R)] | 0.95 | High (key: High: HIA value ≥0.7; Low: HIA value < 0.7)
C[C@@H](C(=O)O)c1ccc(-c2ccccc2)c(F)c1 [Flurbiprofen(R)] | 0.95 | High (key: High: HIA value ≥0.7; Low: HIA value < 0.7)
COc1cccc2c1C(=O)c1c(O)c3c(c(O)c1C2=O)C[C@@](O)(C(C)=O)C[C@@H]3O[C@H]1C[C@H](N)[C@H](O)[C@H](C)O1 [Daunorubicin] | 0.1 | Low (key: High: HIA value ≥0.7; Low: HIA value < 0.7)
CC(C)(Oc1ccc([C@H]2CC2(Cl)Cl)cc1)C(=O)O [Ciprofibrate(R)] | 0.99 | High (key: High: HIA value ≥0.7; Low: HIA value < 0.7)
COc1ccc(CCN(C)CCCN2CCc3cc(OC)c(OC)cc3CC2=O)cc1OC [Zatebradin] | 0.79 | High (key: High: HIA value ≥0.7; Low: HIA value < 0.7)
CCN(C)C(=O)Oc1cccc([C@H](C)N(C)C)c1 [Rivastigmine] | 0.98 | High (key: High: HIA value ≥0.7; Low: HIA value < 0.7)
COc1ccc(C[C@@H](C)N)cc1 [Methoxyamphetamine(R)] | 0.8 | High (key: High: HIA value ≥0.7; Low: HIA value < 0.7)
NCCC[C@@](N)(C(=O)O)C(F)F [Eflornithine(R)] | 0.55 | Low (key: High: HIA value ≥0.7; Low: HIA value < 0.7)
C=CCc1ccccc1OC[C@H](O)CNC(C)C [Alprenolol(R)] | 0.93 | High (key: High: HIA value ≥0.7; Low: HIA value < 0.7)
